The record followed here is ChEMBL document CHEMBL4706752 (ACS Med Chem Lett, 2021).

The subject of data set [1] is Mus musculus. Put plainly: Antiinflammatory activity in DBA/1J mouse model of collagen-induced arthritis assessed as reduction in clinical score at 5 mg/kg, po dosed twice daily for 21 days measured on day 51. The data set is classed as functional. The note with it: 504 h, time 21 day.
Data set [2] relates to Mus musculus. Put plainly: Antiinflammatory activity in DBA/1J mouse model of collagen-induced arthritis assessed as reduction in arthritic score at 5 to 20 mg/kg, po dosed twice daily for 21 days. It counts as functional, organism-based. The following applies: dose 5-20 mg/kg, time 21.0 day.
A further data set has as its target T1, Cytochrome P450 2C8 (Homo sapiens, UniProt P10632).
T1 sequence (P10632 whole entry): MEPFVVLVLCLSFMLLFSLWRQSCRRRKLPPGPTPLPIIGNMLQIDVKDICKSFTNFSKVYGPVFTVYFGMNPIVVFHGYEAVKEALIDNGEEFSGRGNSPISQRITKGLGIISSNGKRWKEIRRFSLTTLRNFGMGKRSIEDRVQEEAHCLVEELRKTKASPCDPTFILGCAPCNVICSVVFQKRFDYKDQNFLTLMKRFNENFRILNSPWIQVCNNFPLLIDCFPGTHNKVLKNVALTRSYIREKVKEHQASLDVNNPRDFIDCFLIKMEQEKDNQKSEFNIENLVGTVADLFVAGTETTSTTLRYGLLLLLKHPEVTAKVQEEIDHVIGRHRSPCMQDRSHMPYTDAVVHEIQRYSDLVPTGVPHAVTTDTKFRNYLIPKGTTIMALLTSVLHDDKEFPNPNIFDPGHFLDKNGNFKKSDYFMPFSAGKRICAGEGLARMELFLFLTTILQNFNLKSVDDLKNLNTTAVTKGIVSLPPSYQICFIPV
Put plainly: Inhibition of CYP2C8 (unknown origin). The data set is classed as ADME.

Data set [3] can be described thus: Tmax in cynomolgus monkey at 2 mg/kg, po. It counts as ADME, organism-based, Macaca fascicularis. The following applies: in vivo.
A short description of data set [4]: Decrease in IL-6 gene expression in C57BL/6 mouse model of IL-23 induced acanthosis model of psoriasis at 10 mg/kg, po BID for 10 days by RT-PCR analysis. The data set is classed as functional. The following applies: C57BL/6, po, 240 h, time 10 day.
A short description of data set [5]: Decrease in IL-17a gene expression in C57BL/6 mouse model of IL-23 induced acanthosis model of psoriasis at 10 mg/kg, po BID for 10 days by RT-PCR analysis. The data set is classed as functional. The following applies: C57BL/6, po, 240 h, time 10 day.
Data set [6] in a line: Decrease in LCN2 gene expression in C57BL/6 mouse model of IL-23 induced acanthosis model of psoriasis at 10 mg/kg, po BID for 10 days by RT-PCR analysis. The data set is classed as functional. The note with it: C57BL/6, po, 240 h, time 10 day.

By inhibition in vivo is commonly meant the percentage by which the read-out fell short of the control. Usually IC50 stands for the midpoint of a concentration-inhibition curve. The Tmax is the time at which the peak concentration occurs. On to `C[C@@](O)(CS(C)(=O)=O)C(=O)N[C@@H]1CC[C@@]2(S(=O)(=O)c3ccc(F)cc3)c3ccc(C(F)(C(F)(F)F)C(F)(F)F)nc3CC[C@@H]12`, for which the inhibition in vivo at 5 mg/kg in the data set with Mus musculus [1] came out at 48%. Moreover, the Activity entry in the data set with Mus musculus [2] is “Dose-dependent effect”. At Cytochrome P450 2C8, this molecule registered an IC50 of 7.6 µM. Moreover, the Tmax in data set [3] is 7 h. The inhibition in vivo at 10 mg/kg in data set [4] worked out at 82.3%; in data set [5], 73.8%; in data set [6], 85.3%.
